Test results: patent publication US5968763A, “Method for screening inhibitors of the enzyme which cleaves the anchor of surface proteins from gram positive bacteria” (The Rockefeller University, priority 1997, dated 1999)

System: LPXTGX cleavage enzyme (carbonate extract of D471 membranes)
Experiment: Cleavage of 125I-labeled LPSTGE synthetic peptide linked to beads (release of radiolabel) by carbonate extract of streptococcal membranes
Assay type: biochemical, M type 6 streptococcal strain D471 (Streptococcus pyogenes)
Settings: carbonate extract of the membranes as enzyme source, FIG. 3; for cleavage activity in the presence of inhibitor: 1 mM each
Procedure: The peptide was radiolabeled with ^125 I using Iodobeads and then the labeled peptide was purified on a Sephadex G10 column and covalently linked by its N-terminal end by EDC (ethyl-3-(3 […])carbodiimide HCl) to an extended arm on a commercially available bead (3M Emphase Biospheres AB1 from Pierce, Rockford, Ill.), and the excess radiolabel removed by washing the beads with 1 M NaCl buffer.
M type 6 streptococcal strain D471 was treated with 0.1 M sodium carbonate (pH 11.5) and incubated for 30 minutes at 0° C. to extract the streptococcal membranes.
The resulting extract was mixed with the labeled beads of Example 1 (50 μl sample, 50 μl 50 mM Tris HCl (pH 8.0) with 10 mM DTT).
The carbonate extract was chromatographed on a 20 HQ perfusion chromatography column, using a Biocad Sprint instrument (Perceptive Biosystem), employing a NaCl gradient from 0 mM to 500 mM (24.9 ml) followed by a 500 mM to 1000 mM (33.2 ml) gradient. To measure the enzyme activity found in the fractions, a 50 μl sample from each fraction was mixed in a reaction buffer in a final volume of 100 μl containing 5 mM DTT and 5 μl of the bead-substrate as described in Example 1. Control samples containing only buffer and the substrate were also mixed and incubated at 37° C. for 4 hours under constant slow rotation. The released radioactivity was then measured in 25 μl of the supernatant obtained after centrifugation. The specific activity was measured after subtracting the control values from the test samples.
FIG. 3 illustrates the enzymatic activity of the carbonate extract of the membranes (as the enzyme source) in the presence of various inhibitors and activators.

Row | Structure (SMILES) | cleavage activity in the presence of inhibitor | further results
1 | OC(CS)C(O)CS (stereo not shown) [DTT] | – | enzymatic (cleavage) activity in the presence of activator (5 mM DTT): enhanced
2 | O=C(O)c1cc[c]([Hg][OH])cc1 [PHMB, parahydroxymercuribenzoic acid] | inhibited cleavage activity | –
3 | O=S(=O)(O)c1cc[c]([Hg][OH])cc1 [PHMPS, parahydroxymercuriphenylsulfonic acid] | inhibited cleavage activity | –
4 | [Ca+2] [calcium] | – | enzymatic (cleavage) activity in the presence of divalent cations (divalent cations such as calcium): enhanced
